Laboratory results: ChEMBL document CHEMBL2439971, “Design, synthesis and antiproliferative evaluation of fluorenone analogs with DNA topoisomerase I inhibitory properties” (Bioorg Med Chem, 2013)

How the values were obtained:
Type in all cases: functional
HCC 2998 [1] = test: Cytotoxicity against human HCC2998 cells after 48 hrs by sulforhodamine B assay; settings: HCC 2998, 48 h
COLO 205 [2] = test: Cytotoxicity against human COLO205 cells after 48 hrs by sulforhodamine B assay; settings: COLO 205, 48 h
NCI-H460 [3] = test: Cytotoxicity against human NCI-H460 cells after 48 hrs by sulforhodamine B assay; settings: NCI-H460, 48 h
CAKI-1 = test: Cytotoxicity against human CAKI-1 cells after 48 hrs by sulforhodamine B assay; settings: CAKI-1, 48 h
T47D [4] = test: Cytotoxicity against human T47D cells at 10 uM after 48 hrs by sulforhodamine B assay relative to control
DU-145 [5] = test: Cytotoxicity against human DU145 cells at 10 uM after 48 hrs by sulforhodamine B assay relative to control
UO-31 = test: Cytotoxicity against human UO31 cells at 10 uM after 48 hrs by sulforhodamine B assay relative to control
TK-10 = test: Cytotoxicity against human TK10 cells at 10 uM after 48 hrs by sulforhodamine B assay relative to control
RXF 393 = test: Cytotoxicity against human RXF393 cells at 10 uM after 48 hrs by sulforhodamine B assay relative to control
NCI/ADR-RES [6] = test: Cytotoxicity against human NCI/ADR-RES cells at 10 uM after 48 hrs by sulforhodamine B assay relative to control
IGROV-1 [7] = test: Cytotoxicity against human IGROV1 cells at 10 uM after 48 hrs by sulforhodamine B assay relative to control
UACC-62 = test: Cytotoxicity against human UACC62 cells at 10 uM after 48 hrs by sulforhodamine B assay relative to control
UACC-257 [8] = test: Cytotoxicity against human UACC257 cells at 10 uM after 48 hrs by sulforhodamine B assay relative to control
MDA-MB-435 = test: Cytotoxicity against human MDA-MB-435 cells at 10 uM after 48 hrs by sulforhodamine B assay relative to control
SNB-75 = test: Cytotoxicity against human SNB75 cells at 10 uM after 48 hrs by sulforhodamine B assay relative to control
HCT-116 = test: Cytotoxicity against human HCT116 cells at 10 uM after 48 hrs by sulforhodamine B assay relative to control
HCC 2998 [9] = test: Cytotoxicity against human HCC2998 cells at 10 uM after 48 hrs by sulforhodamine B assay relative to control
COLO 205 [10] = test: Cytotoxicity against human COLO205 cells at 10 uM after 48 hrs by sulforhodamine B assay relative to control
NCI-H522 = test: Cytotoxicity against human NCI-H522 cells at 10 uM after 48 hrs by sulforhodamine B assay relative to control
NCI-H460 [11] = test: Cytotoxicity against human NCI-H460 cells at 10 uM after 48 hrs by sulforhodamine B assay relative to control
NCI-H322M = test: Cytotoxicity against human NCI-H322M cells at 10 uM after 48 hrs by sulforhodamine B assay relative to control
NCI-H226 = test: Cytotoxicity against human NCI-H226 cells at 10 uM after 48 hrs by sulforhodamine B assay relative to control
SR = test: Cytotoxicity against human SR cells at 10 uM after 48 hrs by sulforhodamine B assay relative to control
CCRF-CEM = test: Cytotoxicity against human CCRF-CEM cells at 10 uM after 48 hrs by sulforhodamine B assay relative to control
T47D [12] = test: Cytotoxicity against human T47D cells after 48 hrs by sulforhodamine B assay
MDA-MB-231 = test: Cytotoxicity against human MDA-MB-231 cells after 48 hrs by sulforhodamine B assay; settings: MDA-MB-231, 48 h
[13] = Cytotoxicity against human Hs 578T cells after 48 hrs by sulforhodamine B assay
DU-145 [14] = test: Cytotoxicity against human DU145 cells after 48 hrs by sulforhodamine B assay; settings: DU-145, 48 h
MCF7 = test: Cytotoxicity against human MCF7 cells after 48 hrs by sulforhodamine B assay; settings: MCF7, 48 h
ACHN = test: Cytotoxicity against human ACHN cells after 48 hrs by sulforhodamine B assay
A498 = test: Cytotoxicity against human A498 cells after 48 hrs by sulforhodamine B assay; settings: A498, 48 h
SK-OV-3 = test: Cytotoxicity against human SKOV3 cells after 48 hrs by sulforhodamine B assay; settings: SK-OV-3, 48 h
NCI/ADR-RES [15] = test: Cytotoxicity against human NCI/ADR-RES cells after 48 hrs by sulforhodamine B assay
OVCAR-4 = test: Cytotoxicity against human OVCAR4 cells after 48 hrs by sulforhodamine B assay; settings: OVCAR-4, 48 h
OVCAR-3 = test: Cytotoxicity against human OVCAR3 cells after 48 hrs by sulforhodamine B assay; settings: OVCAR-3, 48 h
IGROV-1 [16] = test: Cytotoxicity against human IGROV1 cells after 48 hrs by sulforhodamine B assay; settings: IGROV-1, 48 h
UACC-257 [17] = test: Cytotoxicity against human UACC257 cells after 48 hrs by sulforhodamine B assay; settings: UACC-257, 48 h
U-251 = test: Cytotoxicity against human U251 cells after 48 hrs by sulforhodamine B assay; settings: U-251, 48 h
SNB-19 = test: Cytotoxicity against human SNB19 cells after 48 hrs by sulforhodamine B assay; settings: SNB-19, 48 h
SW-620 = test: Cytotoxicity against human SW620 cells after 48 hrs by sulforhodamine B assay; settings: SW-620, 48 h
[18] = read-out: LC50 (the source's name)

CCCCNCC(=O)Nc1ccc2c(c1)C(=O)c1cc(NC(=O)CNCCCC)ccc1-2
GI50 (HCC 2998 [1]): 1.54 µM | TGI (HCC 2998 [1]): 2.95 µM | CC50 (HCC 2998 [1]; [18]): 5.66 µM | GI50 (COLO 205 [2]): 1.27 µM | TGI (COLO 205 [2]): 2.64 µM | CC50 (COLO 205 [2]; [18]): 5.48 µM | GI50 (NCI-H460 [3]): 1.49 µM | TGI (NCI-H460 [3]): 3.35 µM | CC50 (NCI-H460 [3]; [18]): 7.53 µM | GI50 (CAKI-1): 1.79 µM | TGI (CAKI-1): 6.45 µM | CC50 (CAKI-1; [18]): 26.9 µM | Activity (T47D [4]): -26.4% | Activity (DU-145 [5]): 35.16% | Activity (UO-31): -42.01% | Activity (TK-10): 7.32% | Activity (RXF 393): -76.54% | Activity (NCI/ADR-RES [6]): 64.82% | Activity (IGROV-1 [7]): 46.91% | Activity (UACC-62): 7.57% | Activity (UACC-257 [8]): -84.17% | Activity (MDA-MB-435): -58.56% | Activity (SNB-75): 36.53% | Activity (HCT-116): -89.71% | Activity (HCC 2998 [9]): -50.75% | Activity (COLO 205 [10]): -86.41% | Activity (NCI-H522): -50.74% | Activity (NCI-H460 [11]): -27.51% | Activity (NCI-H322M): -0.61% | Activity (NCI-H226): 67.92% | Activity (SR): -56.48% | Activity (CCRF-CEM): -35.23% | GI50 (T47D [12]): 1.56 µM | TGI (T47D [12]): 2.98 µM | CC50 (T47D [12]; [18]): 5.71 µM | GI50 (MDA-MB-231): 1.39 µM | TGI (MDA-MB-231): 2.9 µM | CC50 (MDA-MB-231; [18]): 6.02 µM | GI50 [13]: 2.63 µM | TGI [13]: 9.23 µM | CC50 [13, 18]: 70.9 µM | GI50 (DU-145 [14]): 1.43 µM | TGI (DU-145 [14]): 3.37 µM | CC50 (DU-145 [14]; [18]): 7.94 µM | GI50 (MCF7): 2.25 µM | TGI (MCF7): 8.79 µM | CC50 (MCF7; [18]): 4.4 µM | GI50 (ACHN): 1.4 µM | TGI (ACHN): 4.14 µM | CC50 (ACHN; [18]): 14.9 µM | GI50 (A498): 1.63 µM | TGI (A498): 5.36 µM | CC50 (A498; [18]): 25.1 µM | GI50 (SK-OV-3): 2.55 µM | TGI (SK-OV-3): 8.26 µM | CC50 (SK-OV-3; [18]): 29.5 µM | GI50 (NCI/ADR-RES [15]): 2.89 µM | TGI (NCI/ADR-RES [15]): 10.9 µM | CC50 (NCI/ADR-RES [15]; [18]): 41.4 µM | GI50 (OVCAR-4): 2.06 µM | TGI (OVCAR-4): 5.02 µM | CC50 (OVCAR-4; [18]): 15.9 µM | GI50 (OVCAR-3): 1.73 µM | TGI (OVCAR-3): 3.23 µM | CC50 (OVCAR-3; [18]): 6.05 µM | GI50 (IGROV-1 [16]): 2.24 µM | TGI (IGROV-1 [16]): 6.53 µM | CC50 (IGROV-1 [16]; [18]): 40.6 µM | GI50 (UACC-257 [17]): 1.87 µM | TGI (UACC-257 [17]): 3.37 µM | CC50 (UACC-257 [17]; [18]): 6.08 µM | GI50 (U-251): 1.31 µM | TGI (U-251): 2.65 µM | CC50 (U-251; [18]): 5.34 µM | GI50 (SNB-19): 2.54 µM | TGI (SNB-19): 8.94 µM | CC50 (SNB-19; [18]): 30.6 µM | GI50 (SW-620): 1.25 µM | TGI (SW-620): 3 µM | CC50 (SW-620; [18]): 7.16 µM
